This is an account of results in patent publication US5854211A, “Compounds with growth hormone releasing properties” (Novo Nordisk A/S, priority 1993, dated 1998).

Residues, ends and D or L forms follow the SMILES beside them.

The subject of the assay is rat pituitary cells. Briefly: In-vitro assay of GH secretion from cultured rat pituitary cells (rGH measured by SPA). In kind it is cell-based. The following applies: mixed rat anterior pituitary cell culture, 15 min stimulation at 37° C. On the procedure: An in-vitro assay using rat pituitary cells was established to study the effect of different GH secretagogues. The mixed pituitary cell culture was isolated from the anterior pituitary of male rats and cultured for 3 days. After washing the cells were stimulated for 15 min and the amount of GH secreted measured in the culture supernatant. The isolation of rat pituitary cells was a modification of Sartor, O. et al., Endocrinology 116, 1985, pp. 952-957. Pituitaries were discharged from 250 g male Sprague-Dawley rats after decapitation. The neurointermediate lobes were removed and the remainder was placed in Gey's medium supplemented with 0.25% glucose, 2× non essential amino acid and 1% BSA (isolation buffer). The glands were cut into small pieces and transferred to a flask containing 3 ml isolation buffer +11.5 mg trypsin and 1000 μg DNase and incubated for 35 min at 37° C., 95% O2 and 70 rotations per min. The fragments were washed 3 times by sedimentation in isolation buffer and aspirated into single cells by using a pasteur pipet. After dispersion the cells were filtered though a nylon filter (160 μm) to remove undigested tissue. The cells were washed 3 times with isolation buffer supplemented with trypsin inhibitor (0.75 mg/ml) and resuspended in culture medium (DMEM supplemented with 25 mM HEPES, 4mM Glutamine, 0.75% sodium bicarbonate, 2.5% FCS, 3% horse serum, 10% rat serum, 1 nM T3 and 40 μg/L dexamethasone) to a density of 2×10^5 cells/ml. The cells were seeded into microtiter plates, 200 μl/well and cultured for 3 days at 37° C. and 8% CO2. Following the culture period the cells were washed twice with stimulation buffer (HBSS supplemented with 1% BSA, 0.25% D-glucose and 25 mM HEPES) and preincubated for 1 hour. […] The buffer was collected and analyzed for rat growth hormone (rGH) content in a scintillation proximity assay (SPA) as follows (SPA, essentially as described in U.S. Pat. […] USA 82, 1985, pp. 8672-8676). The rGH assay was performed in OptiPlates (96-well plates) suitable for direct counting in a […] TopCount (β-scintillation counter). Assay protocol: 40 μl buffer 10 μl sample (incubated stimulation buffer) 50 μl ^125 I-rGH 50 μl rabbit anti-rGH 50 μl SPA reagent (anti-rabbit antibody bound to fluomicrospheres) The plates are sealed and placed on a plate shaker for 30 minutes followed by 10 hours of incubation, settling at 10°-15° C. and counting. In the SPA, rGH bound to an anti-GH rabbit antibody (primary antibody) is reacted with a second antibody bound to fluomicrospheres (SPA Type II RIA available from Amersham). Any radiolabelled rGH which is bound to the primary antibody will be immobilized on the fluomicrospheres which will then produce light. Measurement in a β-scintillation counter makes it possible to calculate the amount of radiolabelled rGH. The amount of radiolabelled rGH bound to the fluomicrospheres decreases with an increasing content of rGH in the sample.
Take `C[C@H](NC(=O)[C@@H](Cc1ccc2ccccc2c1)NC(=O)[C@@H](C)N)C(=O)N[C@@H](Cc1c[nH]c2ccccc12)C(=O)N[C@H](Cc1ccccc1)C(=O)N[C@@H](CCCCN)C(N)=O` [H-D-Ala-D-2Nal--Ala--Trp-D-Phe--Lys--NH2] (HELM PEPTIDE1{[dA].[O=C([C@@H](Cc1ccc2ccccc2c1)N[*:1])[*:2]].A.W.[dF].K.[am]}$$$$V2.0): the midpoint of the response, the EC50, lay at 1.8 nM and the “Emax (% of GHRP-6)” value is recorded as 85 % of GHRP-6.
For `C[C@@H](N)C(=O)N[C@H](Cc1ccc2ccccc2c1)C(=O)NCC(=O)N[C@@H](Cc1c[nH]c2ccccc12)C(=O)N[C@H](Cc1ccccc1)C(=O)N[C@@H](CCCCN)C(N)=O` [H-DAla-D2Nal--Gly--Trp-DPhe--Lys--NH2] (HELM PEPTIDE1{[dA].[O=C([C@@H](Cc1ccc2ccccc2c1)N[*:1])[*:2]].G.W.[dF].K.[am]}$$$$V2.0) the same measures were 0.8 nM and 75 % of GHRP-6.
In the case of “(2S)-((3-(4-Imidazolyl)propionyl)-D-Phe--Ala--Trp-D-Phe.psi.(CH2 NH)-6-aminohexanol”, the EC50 (commonly the midpoint of the concentration-response curve) worked out at 5 nM and the “Emax (% of GHRP-6)” value is 80 % of GHRP-6.
For `C[C@H](NC(=O)[C@@H](Cc1c[nH]c2ccccc12)NC(=O)[C@@H](N)Cc1c[nH]cn1)C(=O)N[C@@H](Cc1c[nH]c2ccccc12)C(=O)N[C@H](Cc1ccccc1)C(=O)N[C@@H](CCCCN)C(N)=O` [H--His-D-Trp--Ala--Trp-D-Phe--Lys--NH2] (HELM PEPTIDE1{H.[dW].A.W.[dF].K.[am]}$$$$V2.0) the same measures were 2 nM and 100 % of GHRP-6.
For “H-His-D-Trp-Ala-Trp-D-Phe.psi.(CH2 NH)Lys-NH2 [Example 2]” the same measures were 0.5 nM and 100 % of GHRP-6.
